# From a melting point compilation (Tetko et al.; mined from patent text by program, amines drawn as free bases though some values may be those of a salt)
row,melting point,Compound
1,205 to 206 °C,C[C@H](NC(=O)COCCN1C(=O)c2ccccc2C1=O)C(=O)N[C@H](CCC(=O)OCc1ccccc1)C(N)=O
2,272 to 275 °C,CCn1cc(C(=O)O)c(=O)c2ccc(N3CCNCC3)cc21
3,107 to 114 °C,Nc1ccc(CC(NC(=O)CCCCCCCCCCCNC(=O)C(c2ccccc2)c2ccccc2)c2ccccc2)cc1 (stereo not drawn)
4,107 to 109 °C,CC1(C)OCCN1C(=O)C=Cc1ccccc1
5,241 °C,CC(=O)OCC1OC(n2c(=S)[nH]c3cc(Cl)c(Cl)cc32)C(OC(C)=O)C1OC(C)=O (stereo not drawn)
6,109 to 111 °C,CCC(C(=O)OCC[Si](C)(C)C)c1ccccc1CCC(=O)c1cccc(C=Cc2ccc3ccc(Cl)cc3n2)c1 (stereo not drawn)
7,166 °C,CC12CCC(Oc3c(F)c(F)c(C(F)(F)F)c(F)c3F)=CC1=CCC1C2CCC2(C)C(c3cccnc3)=CCC12 (stereo not drawn)
8,288 to 290 °C,CCOP(=O)(OCC)c1cc2cc(S(N)(=O)=O)c(Cl)cc2[nH]c1=O
9,194 °C,COc1ccc(C(=O)Nc2ccc3ccc(C=O)nc3n2)cc1
10,69 to 70 °C,CN(C)c1ccc(OCC(=O)c2cccc(Cl)c2)cc1
11,203 to 205 °C,CCCn1c(=O)c(C#N)c(Cl)c2ccccc21
12,169 °C,O=c1c(Cl)c(N2CCC(c3ccccc3)CC2)ccn1Cc1ccc(OC(F)(F)F)cc1
13,96 to 100 °C,Nc1cc(O)ccc1CCCl
14,67 to 69 °C,COCc1cc(Cl)c2cccc(OC)c2n1
15,100 to 103 °C,OC(CCN1CCN(c2ccccc2)CC1)COc1ccc(Br)cc1 (stereo not drawn)
16,67 to 69 °C,OCCOCc1nn(Cc2ccccc2)c2ccccc12
17,109 to 111 °C,CC1(C)Oc2ccc(C#N)cc2C(NC(=O)C(N)c2ccccc2)C1O (stereo not drawn)
18,231 to 233 °C,N#C/C=C1\CCc2ncc3c(c21)CCO3
19,130 to 131 °C,COCCOc1ccc(NC(=O)OCc2ccccc2)cc1C(=O)O
20,80 to 83 °C,Cc1ccc(N(C(=O)CCl)c2c(F)cccc2Cl)cc1
21,> 260 °C,O=C(O)Cc1cc(C=Cc2ccc(C(=O)O)cc2)ccc1O
22,208 to 210 °C,COc1cc(Nc2c(C#N)cnc3ccsc23)c(Cl)cc1Cl
23,200 to 201 °C,COc1cccc([C@H]2O[C@H](CC(=O)Nc3ccc4[nH]c(C(=O)O)cc4c3)C(=O)N(CC(C)(C)CO)c3ccc(Cl)cc32)c1OC

row,melting point,Compound
1,133 to 135 °C,O=C(Nc1ccc(Br)cc1CBr)C(F)(F)F
2,162 to 165 °C,CCc1nc2ccc(Cl)nc2n1Cc1ccc2oc(-c3ccccc3-c3nnn[nH]3)c(Br)c2c1
3,147 °C,CCOC(=O)c1nn(-c2ccc(Br)cc2)c2c1CCCC2
4,132 to 133 °C,COC(=O)C1CCN2C(=O)C(=O)c3cc(Cl)cc1c32 (stereo not drawn)
5,140 to 142 °C,CCOC(=O)C1=C(NC(=O)Nc2cc(C(=O)OC(C)C)c(Cl)cc2Cl)CCC1
6,87 to 88 °C,CCn1c(=O)c2conc2n(C)c1=O
7,132 to 133 °C,O=C(O)CCc1cn(Cc2ccc(OCc3csc(-c4ccccc4)n3)cc2)nc1-c1ccccc1
8,183 to 184 °C,CCOC(=O)c1sc(N)nc1-c1cccc(C)c1
9,92 to 93 °C,CCCC(CCC)n1nnc2c(Cl)nc(C)nc21
10,95 °C,COc1cccc(C2CCCN2S(=O)(=O)c2ccc(Cl)cc2)c1 (racemic)
11,> 300 °C,O=C1Nc2ccc(NC(=O)c3cccn(-c4ccc(F)cc4)c3=O)cc2/C1=C/c1ccc[nH]1
12,185 to 187 °C,CC(C)Nc1nc2ccccc2n2c(C(F)(F)F)nnc12
13,171 to 172 °C,CCOC(=O)c1c(Nc2ccccc2)nc2ccc(Br)cc2c1Cl
14,101 to 103 °C,COC(=O)c1cc(OC)c(OCCCN)cc1[N+](=O)[O-]
15,190 to 191 °C,CSc1nn2c(NCCN(C)C)cc(C)nc2c1S(=O)(=O)c1ccccc1
16,105 to 107 °C,CCNC(=O)c1c(Cl)cccc1[Si](C)(C)C
17,65 to 66 °C,COC(=O)c1cc(Br)cc([N+](=O)[O-])c1SCc1ccccc1
18,131 to 132 °C,N#Cc1ccc(N2CC(C(=O)N3CCN(CC(=O)OCc4ccccc4)CC3)OC2=O)cc1 (stereo not drawn)
19,106 to 108 °C,Cn1c(=O)sc2ccc(Cl)cc21
20,> 300 °C,CC1(C)CCC(C)(C)c2cc3[nH]c(S)nc3cc21
21,211 to 213 °C,CCN(CC)c1ccc(-c2cnc3[nH]cc(C(=O)C4(C)CCCCC4)c3n2)cc1
22,214 to 215 °C,O=C(O)c1cccc(-c2ccc(Cl)c3cc(Cc4ccc(F)c(F)c4)sc23)c1
23,112 to 114 °C,N#Cc1cc(Oc2ccccc2)ccc1O

row,melting point,Compound
1,99 to 101 °C,CC(C)c1nc(Cl)nc(-c2ccc(F)cc2)c1Br
2,167 to 169 °C,CCCc1nc2c(N)nc(C)c(C)c2n1CCCCS(N)(=O)=O
3,152 to 153 °C,Oc1ccc(-c2nc(-c3cccs3)c[nH]2)cc1Cl
4,141 to 142 °C,OCc1cn(-c2ccccc2)nc1-c1ccc(Cl)cc1
5,80 to 86 °C,N#CC(C#N)=C1N(CCCN2CCCCC2)CCN1CCN1CCCCCC1
6,247 to 249 °C,NS(=O)(=O)c1ccc(-n2nc(C(F)F)cc2-c2nc3ccccc3s2)cc1
7,179 °C,COC(=O)c1ccc(C2NCCc3c2[nH]c2ccccc32)cc1 (stereo not drawn)
8,80 °C,OC1CSC(Oc2cccnc2-c2cccnc2)C(O)C1O (stereo not drawn)
9,170 to 172 °C,O=S(=O)(Nc1cccc(CC2Cc3ccc(OCc4nc5cc(F)c(F)cc5s4)cc3C2O)c1)C(F)(F)F (stereo not drawn)
10,63 to 64 °C,CC(C)c1ccc(Cc2c(N)nc(SCCN3CCNCC3)nc2N)cc1
11,52 °C,CC(C)(C)OC(=O)NOC(=O)OC(C)(C)C
12,160 °C,CS(=O)c1cc(CCC(=O)OC(C)(C)C)nc(-c2nc(=O)c3ccccc3s2)c1 (stereo not drawn)
13,153 °C,Cc1cccc(C(=O)CCSC(=S)Nc2ccc(Cl)cn2)c1
14,203 °C,O=C(NC(=O)c1c(F)cccc1F)Nc1cc(Br)c(Br)cc1C(F)(F)F
15,147 to 149 °C,FC(F)(F)c1ccnc(Oc2ccc(CCNc3ncnc4nccnc34)cc2)c1
16,130 to 131 °C,CC(C)(N)CNC(=O)Nc1ccccc1
17,118 to 119 °C,CCOC(=O)Nc1ccccc1NS(=O)(=O)c1ccc(OC)cc1
18,165 to 166 °C,COc1ccc(S(=O)(=O)Nc2ccccc2Nc2cccc(O)c2)cc1
19,104 to 106 °C,CSC(=N)N(c1ccccc1)c1ccccc1
20,255 to 257 °C,CC(=O)NCC1CN(c2ccc(N3CCN(c4nnc(C(F)(F)F)s4)CC3)c(F)c2)C(=O)O1 (stereo not drawn)
21,224 to 225 °C,CC(C)(F)Cn1c(CCO)nc2c(N)nc3cccnc3c21
22,99 to 101 °C,COc1ccc(/C=C/c2c(Cl)cncc2Cl)cc1OC1CCCC1
23,120 °C,OC(CN1CCNCC1)Cn1c2ccccc2c2cc(-c3ccccc3)ccc21 (stereo not drawn)

row,Compound,melting point
1,CCOC(=O)NC(=O)P(=O)(OCC)OCC,57 to 64 °C
2,CS(=O)(=O)CCN1C(=O)CN=C(c2ccccc2F)c2cc(Cl)ccc21,155 to 156 °C
3,CN(C)CCc1nnc2n1-c1ccc(Cl)cc1C(c1ccccc1)NC2 (stereo not drawn),131 to 137 °C
4,CC(C)CN(Cc1nnc(-c2ncn3c2CN(C)C(=O)c2ccccc2-3)o1)CC(C)C,138 to 140 °C
